Measured values published in patent US4312867A, “Antibacterial compounds, processes for their preparation and compositions containing them” (Beecham Group Limited, priority 1979, dated 1982).
Converted amounts (≈) assume the structure as drawn. Where two headings read alike, the source gives them in different places.

Columns and labels:
Format in all cases: cell-based
[1] = system: M pneumoniae 427a; assay: in vitro anti-mycoplasmal MIC, Friis' broth (Table 3)
Description: (§1) The minimum inhibitory concentrations (MIC) of the examples were determined by either:
(§2) (i) in Friis' broth using microtitre plates, by modification of the metabolic-inhibition test (Taylor-Robinson, Post Frad, Med. J., 1967, 43, 100).

[2] = system: M suipneumoniae Str 11; assay: as above
Description: as §1, §2

[3] = system: M dispar H225; assay: as above
Description: as §1, §2

[4] = system: M pulmonis JB; assay: as above
Description: as §1, §2

[5] = system: M pneumoniae ATCC 15492; assay: as above
Description: as §1, §2

[6] = system: M dispar NCTC 10125; assay: as above
Description: as §1, §2

[7] = system: M suipneumoniae J2206/183b; assay: as above
Description: as §1, §2

[8] = system: M fermentans MWKL4; assay: as above
Description: as §1, §2

[9] = system: M alkalescens NCTC 10135; assay: in vitro anti-mycoplasmal MIC, Friis' agar (Table 3)
Description: as §1
(§3) or (ii) by serial dilution in Friis' agar medium.

[10] = system: M pneumoniae 427a; assay: as above
Description: as §1, §3

[11] = system: M hyorhinis ATCC 23234; assay: as above
Description: as §1, §3

[12] = system: M bovigenitalium ATCC 14173; assay: as above
Description: as §1, §3

[13] = system: M arthritidis ATCC 14124; assay: as above
Description: as §1, §3

[14] = system: M pulmonis JB; assay: as above
Description: as §1, §3

[15] = system: M hyosynoviae ATCC 25591; assay: as above
Description: as §1, §3

[16] = system: M pneumoniae ATCC 15492; assay: as above
Description: as §1, §3

[17] = system: M synoviae ATCC 25204; assay: as above
Description: as §1, §3

[18] = system: M bovis ATCC 25025; assay: as above
Description: as §1, §3

[19] = system: M bovis NCTC 10131; assay: as above
Description: as §1, §3

[20] = system: M fermentans MWKL4; assay: as above
Description: as §1, §3

[21] = system: M gallisepticum S6; assay: as above
Description: as §1, §3

[22] = system: M. suipneumoniae PW/C/210; assay: anti-mycoplasmal MIC, Friis broth solidified with agarose (Table 4); settings: Mesomycoplasma hyopneumoniae, 144 h, 6 days at 37° C.
[23] = system: M. hyosynoviae ATCC 25591; assay: as above; settings: 144 h
[24] = system: M. bovis NCTC 10131; assay: microbe, parasite or virus in culture; settings: NCTC10131, 144 h
[25] = system: M. suipneumoniae NB12; assay: anti-mycoplasmal MIC, Friis broth solidified with agarose (Table 4); settings: Mesomycoplasma hyopneumoniae
[26] = system: M. suipneumoniae UCD1; assay: as above; settings: Mesomycoplasma hyopneumoniae, 144 h, 6 days at 37° C.
[27] = system: 12 strains of M. suipneumoniae; assay: anti-mycoplasmal MIC, Friis broth solidified with agarose (Table 4), mean over strains; settings: Mesomycoplasma hyopneumoniae, 144 h; mean of 12 strains; 6 days at 37° C.; read-out: Mean MIC for above 12 strains of M. suipneumoniae
[28] = system: M. pneumoniae ATCC 15492; assay: anti-mycoplasmal MIC, Friis broth solidified with agarose (Table 4); settings: Mycoplasmoides pneumoniae, ATCC15492, 144 h, 6 days at 37° C.
[29] = system: M. suipneumoniae ATCC 25095; assay: as above; settings: Mesomycoplasma hyopneumoniae, ATCC25095, 144 h, 6 days at 37° C.
[30] = system: M. suipneumoniae HK(2); assay: as above; settings: Mesomycoplasma hyopneumoniae, 144 h, 6 days at 37° C.
[31] = system: B. subtilis ATCC 6633; assay: MIC veterinary bacteria (Table 2), serial dilution in agar; settings: diagnostic sensitivity test agar
[32] = system: M. suipneumoniae NCTC 10110; assay: anti-mycoplasmal MIC, Friis broth solidified with agarose (Table 4); settings: Mesomycoplasma hyopneumoniae, NCTC10110, 144 h
[33] = system: M. bovigenitalium ATCC 14173; assay: as above; settings: 144 h
[34] = system: M. suipneumoniae JF435; assay: as above; settings: Mesomycoplasma hyopneumoniae
[35] = system: M. suipneumoniae MS16; assay: as above; settings: Mesomycoplasma hyopneumoniae
[36] = system: M. suipneumoniae J2206/183b; assay: as above; settings: Mesomycoplasma hyopneumoniae, 144 h, 6 days at 37° C.
[37] = system: M. gallisepticum S6; assay: as above; settings: Mycoplasmoides gallisepticum
[38] = system: M. hyorhinis ATCC 23234; assay: as above; settings: Mesomycoplasma hyorhinis, ATCC23234, 144 h, 6 days at 37° C.
[39] = system: M. suipneumoniae TAM 6N; assay: as above; settings: Mesomycoplasma hyopneumoniae, TAM6N, 144 h, 6 days at 37° C.
[40] = system: Past haemolytica PA5; assay: MIC veterinary bacteria (Table 2), serial dilution in agar; settings: diagnostic sensitivity test agar
[41] = system: M. dispar NCTC 10125; assay: anti-mycoplasmal MIC, Friis broth solidified with agarose (Table 4); settings: 144 h, 6 days at 37° C.
Description: The values were determined in Friis broth solidifed with 0.9% agarose. The inoculum was 10^3 to 10^5 CFV and the MIC's were recorded after 6 days incubation at 37° C.

SMILES	MIC [1] [µg/mL]	MIC [2] [µg/mL]	MIC [3] [µg/mL]	MIC [4] [µg/mL]	MIC [5] [µg/mL]	MIC [6] [µg/mL]	MIC [7] [µg/mL]	MIC [8] [µg/mL]	MIC [9] [µg/mL]	MIC [10] [µg/mL]	MIC [11] [µg/mL]	MIC [12] [µg/mL]	MIC [13] [µg/mL]	MIC [14] [µg/mL]	MIC [15] [µg/mL]	MIC [16] [µg/mL]	MIC [17] [µg/mL]	MIC [20] [µg/mL]	MIC [21] [µg/mL]	MIC [22] [µg/mL]	further results
C/C(=C\C(=O)OCCCCCCS(N)(=O)=O)CC1OCC(CC2OC2C(C)C(C)O)C(O)C1O (stereo not drawn) [Example 2, 6-Sulphamoylhexyl monate A]	0.312 (≈ 0.615 µM)	≤ 0.02	< 0.02	< 0.02	0.312 (≈ 0.615 µM)	< 0.02	0.156 (≈ 0.307 µM)	< 0.02	< 0.02	0.312 (≈ 0.615 µM)	0.156 (≈ 0.307 µM)	≤ 0.02	5 (≈ 9.85 µM)	≤ 0.02	0.039 (≈ 0.0768 µM)	0.625 (≈ 1.23 µM)	< 0.02	0.039 (≈ 0.0768 µM)	2.5 (≈ 4.92 µM)	–	MIC [18]: < 0.02 µg/mL; MIC [19]: < 0.02 µg/mL
C/C(=C\C(=O)OCCCCCCCCS(N)(=O)=O)CC1OCC(CC2OC2C(C)C(C)O)C(O)C1O (stereo not drawn) [Example 3, 8-Sulphamoyloctyl monate A]	0.312 (≈ 0.582 µM)	0.02 (≈ 0.0373 µM)	0.02 (≈ 0.0373 µM)	0.02 (≈ 0.0373 µM)	0.312 (≈ 0.582 µM)	0.02 (≈ 0.0373 µM)	0.156 (≈ 0.291 µM)	0.02 (≈ 0.0373 µM)	< 0.02	0.312 (≈ 0.582 µM)	0.312 (≈ 0.582 µM)	< 0.039	5 (≈ 9.33 µM)	0.039 (≈ 0.0728 µM)	0.078 (≈ 0.146 µM)	0.625 (≈ 1.17 µM)	< 0.02	0.039 (≈ 0.0728 µM)	2.5 (≈ 4.67 µM)	–	–
C/C(=C\C(=O)OCCCS(=O)(=O)N(C)C)CC1OCC(CC2OC2C(C)C(C)O)C(O)C1O (stereo not drawn) [Example 4, 3-N,N-Dimethylsulphamoylpropyl monate A]	–	–	–	–	–	–	–	–	–	–	–	–	–	–	–	–	–	–	–	500 (≈ 1010 µM)	MIC ([23]; M. hyosynoviae ATCC 25591, 6 days at 37° C., read-out: MIC): 250 µg/mL (≈ 506 µM); MIC [24]: ≤ 10 µg/mL; MIC ([25]; NB12, 144 h): 500 µg/mL (≈ 1010 µM); MIC [26]: 1000 µg/mL (≈ 2030 µM); MIC [27]: 750 µg/mL (≈ 1520 µM); MIC [28]: 5000 µg/mL (≈ 10100 µM); MIC [29]: 500 µg/mL (≈ 1010 µM); MIC [30]: 1000 µg/mL (≈ 2030 µM); MIC [31]: No Growth; MIC [32]: 1000 µg/mL (≈ 2030 µM); MIC [33]: 50 µg/mL (≈ 101 µM); MIC ([34]; JF435, 144 h): 1000 µg/mL (≈ 2030 µM); MIC ([35]; 144 h, M. suipneumoniae MS16, 6 days at 37° C., read-out: MIC): 500 µg/mL (≈ 1010 µM); MIC [36]: 1000 µg/mL (≈ 2030 µM); MIC ([37]; 144 h, M. gallisepticum S6, 6 days at 37° C., read-out: MIC): > 10000 µg/mL; MIC [38]: 250 µg/mL (≈ 506 µM); MIC [39]: 1000 µg/mL (≈ 2030 µM); MIC [40]: 10 µg/mL (≈ 20.3 µM)
C/C(=C\C(=O)OC(C)CCCCCS(N)(=O)=O)CC1OCC(CC2OC2C(C)C(C)O)C(O)C1O (stereo not drawn) [Example 5, 7-Sulphamoylhept-2-yl monate A]	–	–	–	–	–	–	–	–	–	–	–	–	–	–	–	–	–	–	–	250 (≈ 479 µM)	MIC [23]: 100 µg/mL (≈ 192 µM); MIC [24]: ≤ 10 µg/mL; MIC ([25]; 144 h, M. suipneumoniae NB12, 6 days at 37° C., read-out: MIC): 500 µg/mL (≈ 958 µM); MIC [26]: 1000 µg/mL (≈ 1920 µM); MIC [41]: 100 µg/mL (≈ 192 µM); MIC [27]: 480 µg/mL (≈ 920 µM); MIC [28]: 1000 µg/mL (≈ 1920 µM); MIC [29]: 250 µg/mL (≈ 479 µM); MIC [30]: 1000 µg/mL (≈ 1920 µM); MIC [31]: No Growth; MIC ([32]; M. suipneumoniae NCTC 10110, 6 days at 37° C., read-out: MIC): 500 µg/mL (≈ 958 µM); MIC ([33]; M. bovigenitalium ATCC 14173, 6 days at 37° C., read-out: MIC): 50 µg/mL (≈ 95.8 µM); MIC ([34]; 144 h, M. suipneumoniae JF435, 6 days at 37° C., read-out: MIC): 500 µg/mL (≈ 958 µM); MIC ([35]; MS16, 144 h): 250 µg/mL (≈ 479 µM); MIC [36]: 500 µg/mL (≈ 958 µM); MIC ([37]; S6, 144 h): 2500 µg/mL (≈ 4790 µM); MIC [38]: 250 µg/mL (≈ 479 µM); MIC [39]: 500 µg/mL (≈ 958 µM)
